According to US20190084939A1, “ANALOGS OF FEXARAMINE AND METHODS OF MAKING AND USING” (Salk Institute for Biological Studies, priority 2014, published 2019):
pEC50: −log10 of the molar value. Like-named read-outs stand apart in the source and are kept apart here.

Target: T1, Human FXR full length (Homo sapiens, UniProt Q96RI1)
T1 construct: Human FXR full length and RXR full length was obtained from Ronald Evans' laboratory; expressed in transfected cells; host or cells: CV-1 cells
T1 sequence (Q96RI1 1-476 isoform Q96RI1-1): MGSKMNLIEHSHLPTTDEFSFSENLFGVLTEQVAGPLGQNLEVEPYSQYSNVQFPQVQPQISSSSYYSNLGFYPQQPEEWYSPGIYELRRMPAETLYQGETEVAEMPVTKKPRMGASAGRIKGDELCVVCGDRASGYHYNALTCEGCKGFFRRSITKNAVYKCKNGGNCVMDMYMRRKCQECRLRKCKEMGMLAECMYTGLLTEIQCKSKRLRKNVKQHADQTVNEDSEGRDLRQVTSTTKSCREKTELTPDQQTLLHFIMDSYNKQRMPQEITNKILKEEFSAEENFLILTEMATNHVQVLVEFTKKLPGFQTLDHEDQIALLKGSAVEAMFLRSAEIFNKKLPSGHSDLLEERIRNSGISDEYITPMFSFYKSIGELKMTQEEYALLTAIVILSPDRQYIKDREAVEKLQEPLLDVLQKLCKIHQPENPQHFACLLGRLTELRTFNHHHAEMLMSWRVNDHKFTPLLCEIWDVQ
T1 sequence (P19793 1-462 partner): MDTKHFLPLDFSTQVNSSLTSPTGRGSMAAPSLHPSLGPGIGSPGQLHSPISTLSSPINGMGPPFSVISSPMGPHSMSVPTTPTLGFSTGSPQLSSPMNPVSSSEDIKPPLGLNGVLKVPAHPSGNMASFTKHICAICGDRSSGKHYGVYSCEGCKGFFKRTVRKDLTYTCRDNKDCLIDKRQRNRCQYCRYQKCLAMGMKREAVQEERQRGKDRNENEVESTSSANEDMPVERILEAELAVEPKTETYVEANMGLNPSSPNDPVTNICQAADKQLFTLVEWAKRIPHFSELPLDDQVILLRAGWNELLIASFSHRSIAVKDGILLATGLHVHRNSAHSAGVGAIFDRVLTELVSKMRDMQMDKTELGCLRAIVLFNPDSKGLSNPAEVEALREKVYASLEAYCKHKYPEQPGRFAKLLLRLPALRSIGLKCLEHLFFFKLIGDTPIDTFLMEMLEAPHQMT
Experiment: FXR activity screen, luciferase reporter in transfected CV-1 cells
Assay type: cell-based
Protocol: CV-1 cells were grown in DMEM+10% charcoal stripped FCS. Cells were seeded into 384-well plates the day before transfection to give a confluency of 50-80% at transfection. A total of […] DNA containing 0.32 micrograms pCMX-hFXRfl, 0.32 micrograms pCMX-hRXRfl, 0.1 micrograms pCMXβGal, 0.08 micrograms pGLFXRE reporter and 0.02 micrograms pCMX empty vector was transfected per well using FuGene transfection reagent according to the manufacturer's instructions (Roche). Cells were allowed to express protein for 48 hours followed by addition of compound.
Human FXR full length and RXR full length was obtained from Ronald Evans' laboratory and PCR amplification of the hFXR cDNA and the hRXR cDNA was performed. The amplified cDNAs was cloned into the vector pCMX generating the plasmids pCMX-hFXRfl and pCMX-hRXRfl. Ensuing fusions were verified by sequencing. The pCMXMH2004 luciferase reporter contains multiple copies of the GAL4 DNA response element under a minimal eukaryotic promoter (Hollenberg and Evans, 1988). pCMXβGal was generated in the Evans laboratory, Salk Institute.
All compounds were dissolved in DMSO and diluted 1:1000 upon addition to the cells. Compounds were tested in quadruple in concentrations ranging from 0.001 to 100 μM. Cells were treated with compound for 24 hours followed by luciferase assay. Each compound was tested in at least two separate experiments.
Medium including test compound was aspirated and washed with PBS. 50 μL PBS including 1 mM Mg^2+ and Ca^2+ were then added to each well. The luciferase assay was performed using the LucLite kit according to the manufacturer's instructions (Packard Instruments). Light emission was quantified by counting on a Perkin Elmer Envision reader. To measure […] activity 25 μL supernatant from each transfection lysate was transferred to a new 384 microplate. Beta-galactosidase assays were performed in the microwell plates using a kit from Promega and read in a Perkin Elmer Envision reader. The beta-galactosidase data were used to normalize (transfection efficiency, cell growth etc.) the luciferase data.
The activity of a compound is calculated as fold induction compared to an untreated sample. For each compound the efficacy (maximal activity) is given as a relative activity compared to Fexaramine, a FXR agonist. The EC50 is the concentration giving 50% of maximal observed activity. EC50 values were calculated via non-linear regression using GraphPad PRISM (GraphPad Software, San Diego, Calif.).

[1] = first round, CV-1 cells, 24 hours, read-out: 1st RND EC50
[2] = second round, CV-1 cells, 24 hours, read-out: 2nd RND EC50
[3] = retest, read-out: EC50 (retested)

| SMILES | pEC50 [1] | pEC50 [2] | pEC50 [3] |
| --- | --- | --- | --- |
| [2H]C(c1ccc(-c2ccc3c(cnn3C)c2)cc1)N(C(=O)c1ccccc1)c1cccc(/C=C/C(=O)OC)c1 (centres unmarked) [NSSK00049] | 5.55 | 5.46 | – |
| COC(=O)/C=C/c1cccc(N(Cc2ccc(-c3ccc4c(cnn4C)c3)cc2)C(=O)C2CCN(C)CC2)c1 [NSSK00035] | 5.48 | 5.35 | – |
| COC(=O)/C=C/c1cc(F)cc(N(Cc2ccc(-c3ccc4c(cnn4C)c3)cc2Cl)C(=O)c2ccccc2)c1 [NSSK00100] | 5.85 | 5.74 | – |
| COC(=O)/C=C/c1cncc(N(Cc2ccc(-c3ccc(N(C)C)cc3)cc2Cl)C(=O)[C@@H]2C[C@@H]3CC[C@H]2C3)c1 [NSSK00082] | 5.29 | 5.21 | – |
| COC(=O)/C=C/c1cncc(N(Cc2cccc3cc4cnn(C)c4c(F)c23)C(=O)C2CCCCC2)c1 [NSSK00008] | 5.70 | 5.85 | – |
| COC(=O)/C=C/c1cncc(N(Cc2ccc(-c3ccc(N(C)C)cc3)cc2Cl)C(=O)c2ccccc2)c1 [NSSK00081] | 4.64 | 4.15 | – |
| COC(=O)/C=C/c1cc(F)cc(N(Cc2ccc(-c3ccc4c(cnn4C)c3)cc2F)C(=O)c2ccccc2)c1 [NSSK00099] | 5.68 | 5.68 | – |
| [2H]C(c1ccc(-c2ccc3c(cnn3C)c2)cc1)N(C(=O)[C@@H]1C[C@@H]2CC[C@H]1C2)c1cccc(/C=C/C(=O)OC)c1 (some centres unmarked) [NSSK00086] | 6.43 | 5.80 | – |
| COC(=O)/C=C/c1cc(F)cc(N(Cc2ccc(-c3ccc4c(cnn4C)c3)cc2)C(=O)C2CCCCC2)c1 [NSSK00084] | 5.44 | 5.33 | – |
| [2H]C(c1ccc(-c2ccc(N(C)C)cc2)cc1)N(C(=O)c1ccccc1)c1cncc(/C=C/C(=O)OC)c1 (centres unmarked) [NSSK00063] | 5.52 | 5.72 | – |
| [2H]C(c1ccc(-c2ccc3c(cnn3C)c2)cc1)N(C(=O)C1CCCCC1)c1cncc(/C=C/C(=O)OC)c1 (centres unmarked) [NSSK00034] | 5.66 | 5.57 | – |
| [2H]C(c1ccc(-c2ccc3c(cnn3C)c2)cc1F)N(C(=O)[C@@H]1C[C@@H]2CC[C@H]1C2)c1cccc(/C=C/C(=O)OC)c1 (some centres unmarked) [NSSK00070] | 5.77 | 5.77 | – |
| COC(=O)/C=C/c1cncc(N(Cc2ccc(-c3ccc(N(C)C)cc3)cc2F)C(=O)[C@@H]2C[C@@H]3CC[C@H]2C3)c1 [NSSK00115] | – | 5.70 | – |
| COC(=O)/C=C/c1cncc(N(Cc2ccc(-c3ccc(N(C)C)cc3)cc2)C(=O)c2ccccc2)c1 [NSSK00060] | 5.07 | 4.95 | – |
| COC(=O)/C=C/c1cc(F)cc(N(Cc2ccc(-c3ccc4c(cnn4C)c3)cc2)C(=O)c2ccccc2)c1 [NSSK00058] | 5.92 | 5.82 | – |

The next molecules have a higher pEC50 [2] than those just listed; values first:

| pEC50 [1] | pEC50 [2] | pEC50 [3] | SMILES |
| --- | --- | --- | --- |
| 7.31 | 7.33 | 6.93 | [2H]C(c1ccc(-c2ccc(N(C)C)cc2)cc1F)N(C(=O)C1CCCCC1)c1cccc(/C=C/C(=O)OC)c1 (centres unmarked) [NSSK00027, methyl (E)-3-(3-(N-((4′-(dimethylamino)-3-fluoro-[1,1′-biphenyl]-4-yl)methyl-d)cyclohexanecarboxamido)phenyl)acrylate] |
| 6.29 | 6.22 | – | [2H]C(c1ccc(-c2ccc(N(C)C)cc2)cc1F)N(C(=O)c1ccccc1)c1cccc(/C=C/C(=O)OC)c1 (centres unmarked) [NSSK00079] |
| 7.01 | 7.18 | – | COC(=O)/C=C/c1cccc(N(Cc2cccc3ccc(N(C)C)c(F)c23)C(=O)C2CCCCC2)c1 [NSSK00002] |
| 6.10 | 6.20 | – | COC(=O)/C=C/c1cccc(N(Cc2ccc(-c3ccc4c(cnn4C)c3)cc2Cl)C(=O)C2CCCCC2)c1 [NSSK00091] |
| 6.92 | 6.84 | – | [2H]C(c1ccc(-c2ccc3c(cnn3C)c2)cc1Cl)N(C(=O)[C@@H]1C[C@@H]2CC[C@H]1C2)c1cncc(/C=C/C(=O)OC)c1 (some centres unmarked) [NSSK00073] |
| 6.03 | 6.26 | – | COC(=O)/C=C/c1cccc(N(Cc2cccc3cc4cnn(C)c4c(F)c23)C(=O)C2C[C@H]3CC[C@@H]2C3)c1 (some centres unmarked) [NSSK00019] |
| 6.16 | 6.16 | – | COC(=O)/C=C/c1cccc(N(Cc2ccc(-c3ccc(N(C)C)cc3)cc2Cl)C(=O)[C@@H]2C[C@@H]3CC[C@H]2C3)c1 [NSSK00052] |
| – | 6.30 | – | [2H]C(c1ccc(-c2ccc(N(C)C)cc2)cc1F)N(C(=O)c1ccccc1)c1cc(F)cc(/C=C/C(=O)OC)c1 (centres unmarked) [NSSK00108] |
| 6.82 | 6.78 | – | [2H]C(c1ccc(-c2ccc(N(C)C)cc2)cc1)N(C(=O)C1CCCCC1)c1cc(F)cc(/C=C/C(=O)OC)c1 (centres unmarked) [NSSK00025] |
| 6.23 | 6.04 | – | [2H]C(c1ccc(-c2ccc(N(C)C)cc2)cc1)N(C(=O)[C@@H]1C[C@@H]2CC[C@H]1C2)c1cncc(/C=C/C(=O)OC)c1 (some centres unmarked) [NSSK00026] |
| 6.55 | 6.42 | – | [2H]C(c1ccc(-c2ccc3c(cnn3C)c2)cc1Cl)N(C(=O)C1CCCCC1)c1cc(F)cc(/C=C/C(=O)OC)c1 (centres unmarked) [NSSK00016] |
| 6.46 | 6.32 | – | [2H]C(c1ccc(-c2ccc3c(cnn3C)c2)cc1Cl)N(C(=O)C1CCCCC1)c1cccc(/C=C/C(=O)OC)c1 (centres unmarked) [NSSK00014] |
| 6.01 | 5.89 | – | COC(=O)/C=C/c1cc(F)cc(N(Cc2ccc(-c3ccc(N(C)C)cc3)cc2Cl)C(=O)C2CCCCC2)c1 [NSSK00117] |
| 6.77 | 6.59 | – | [2H]C(c1ccc(-c2ccc3c(cnn3C)c2)cc1)N(C(=O)C1CCCCC1)c1cccc(/C=C/C(=O)OC)c1 (centres unmarked) [NSSK00033] |
| 5.96 | 5.92 | – | [2H]C(c1ccc(-c2ccc3c(cnn3C)c2)cc1Cl)N(C(=O)c1ccccc1)c1cc(F)cc(/C=C/C(=O)OC)c1 (centres unmarked) [NSSK00041] |
| 6.56 | 6.61 | – | COC(=O)/C=C/c1cccc(N(Cc2cccc3cc4cnn(C)c4c(F)c23)C(=O)C2CCCCC2)c1 [NSSK00006] |
| 6.28 | 6.27 | – | COC(=O)/C=C/c1cccc(N(Cc2ccc(-c3ccc(N(C)C)cc3)cc2)C(=O)c2ccccc2)c1 [NSSK00053] |
| 5.92 | 5.92 | – | [2H]C(c1ccc(-c2ccc3c(cnn3C)c2)cc1F)N(C(=O)C1CCCCC1)c1cncc(/C=C/C(=O)OC)c1 (centres unmarked) [NSSK00012] |
| 6.44 | 6.60 | – | [2H]C(c1ccc(-c2ccc(N(C)C)cc2)cc1Cl)N(C(=O)C1CCCCC1)c1cccc(/C=C/C(=O)OC)c1 (centres unmarked) [NSSK00031] |
| 6.51 | 6.00 | – | COC(=O)/C=C/c1cc(F)cc(N(Cc2ccc(-c3ccc(N(C)C)cc3)cc2Cl)C(=O)c2ccccc2)c1 [NSSK00103] |
| 6.60 | 6.48 | – | COC(=O)/C=C/c1cc(F)cc(N(Cc2ccc(-c3ccc(N(C)C)cc3)cc2)C(=O)[C@@H]2C[C@@H]3CC[C@H]2C3)c1 [NSSK00102] |
| 6.42 | 6.39 | 6.44 | [2H]C(c1ccc(-c2ccc3c(cnn3C)c2)cc1F)N(C(=O)C1CCCCC1)c1cccc(/C=C/C(=O)OC)c1 (centres unmarked) [NSSK00089, methyl (E)-3-(3-(N-((2-fluoro-4-(1-methyl-1H-indazol-5-yl)phenyl)methyl-d)cyclohexanecarboxamido)phenyl)acrylate] |
